Reference: patent publication US7138242B2, “Olfactory receptor expression libraries and methods of making and using them” (Johns Hopkins University, priority 1998, dated 2006)
Where a chain is given by its changes, count along the chain named.

What was measured:
[1] = target: T1, full-length rat I7 receptor, residue 206 valine/isoleucine substitution (Rattus norvegicus, UniProt P23270, V206I); test: Ca2+ imaging, full-length rat I7 receptor with valine/isoleucine substitution at residue 206; format: cell-based; settings: heptanal vs octanal
T1 construct: expressed in transfected cells; not repeated
T1 sequence (P23270 1-327 V206I): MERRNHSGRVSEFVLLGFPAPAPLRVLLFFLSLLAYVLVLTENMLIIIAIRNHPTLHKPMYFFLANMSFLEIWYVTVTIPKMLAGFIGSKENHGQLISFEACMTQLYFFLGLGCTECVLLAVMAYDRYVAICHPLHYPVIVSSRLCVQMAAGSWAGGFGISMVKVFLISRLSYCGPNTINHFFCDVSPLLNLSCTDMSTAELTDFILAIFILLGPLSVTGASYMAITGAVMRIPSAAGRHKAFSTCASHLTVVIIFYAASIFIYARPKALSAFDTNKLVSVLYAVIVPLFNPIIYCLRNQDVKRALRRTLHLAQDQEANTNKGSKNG

[2] = system: Rho/M4NC-β2 TM II–VII (TM II–VII region from the β2-adrenergic receptor in pCMV-Rho/M4NC); test: Single-cell FURA-2 Ca2+ imaging, HEK-293 cells co-transfected with Rho/M4NC-β2 TM II–VII and Gα15,16; format: cell-based, human; settings: bath application; cells co-transfected with Gα15,16
Procedure: HEK-293 cells (obtained from the ATCC) were grown in DMEM supplemented with 10% fetal bovine serum, penicillin (100 U/ml), streptomycin (100 μg/ml) and L-glutamine (2 mM) in 5% CO2. […] After 5 to 7 hr incubation, the cells were washed once with PBS containing 0.5 mM EDTA and 10% DMSO, then with PBS before continuing growth in regular media for 40–50 hr.
Efficient screening of expressed olfactory receptors with a large number of ligands by functional analysis requires a robust and sensitive assay system. […] In this reporter system, (olfactory) receptor activation leads to the generation of an IP3-mediated increase in intracellular Ca^2+, which can be measured at the single-cell level with high sensitivity and good temporal resolution using the dye FURA-2 and radiofluorometric imaging.
A construct with the TM II–VII region from the β2-adrenergic receptor inserted in the pCMV-Rho/M4NC vector (Rho/M4NC-β2 TM II–VII) was co-transfected with Gα15,16 into HEK-293 cells. […] Images of fluorescent cells were obtained on a Zeiss 510 confocal microscope with excitation at 488 nm.
These transfected cells were then tested for their ability to functionally respond to ligand-receptor binding. The ligand, the adrenergic agonist isoproterenol, was “bath” applied to the transfected cells and single cell Ca^2+-imaging was performed. Cells were pre-loaded with the Ca^2+-sensitive fluorescent dye FURA-2 AM (Molecular Probes) by bathing in serum-free DMEM containing 4 μM of the membrane permeant chemical for 1 hr at 37° C., then washed with a standard bath solution (130 mM NaCl, 2 mM CaCl2, 5 mM KCl, 10 mM glucose, 10 mM Na.HEPES/pH 7.4 at room temperature). […] Acetylcholine was applied at the end of each experiment at 10 μM for 15–20 seconds. […] At 5-second intervals, the cells were sequentially illuminated for less than 100 ms, first at 340 nm and then at 380 nm. Fluorescence emission at 510 nm was monitored for each excitation wavelength via an intensified CCD camera. Averaged pixel intensities within 40 to 100 regions of interest, corresponding to 40 to 100 individual cells, were digitized and stored on a computer. Attofluor-Ratiovision software (Atto Instruments) was used to determine the Ca^2+-dependent fluorescence signal expressed as the F340/F380 ratio.

[3] = system: Rho/M4NC-mouse I7 transmembrane II–VII chimeric receptor; test: Ca2+ imaging, Rho/M4NC-mouse I7 TM II–VII chimeric receptor in HEK-293 cells; format: cell-based; settings: 10 μM
[4] = target: T2, full-length rat I7 olfactory receptor fused to rhodopsin N-terminus (Rattus norvegicus, UniProt P23270); test: Ca2+ imaging, HEK-293 cells expressing translocation domain (rhodopsin N-terminus) fused to full-length rat I7; format: cell-based
T2 construct: expressed in transfected cells; host or cells: HEK-293 with Gα15,16
T2 sequence (P23270 1-327): T1 sequence (P23270 1-327 V206I) with I206V

[5] = system: Rho/M4NC-ratI7 TM II–VII chimeric receptor; test: Ca2+ imaging, HEK-293 cells co-expressing Rho/M4NC-ratI7 TM II–VII chimeric construct and Gα15,16; format: cell-based, rat; settings: for relative Ca2+ response, octanal vs heptanal: identical experiments to mouse I7 chimera
Procedure: HEK-293 cells (obtained from the ATCC) were grown in DMEM supplemented with 10% fetal bovine serum, penicillin (100 U/ml), streptomycin (100 μg/ml) and L-glutamine (2 mM) in 5% CO2. Before transfection, the cells were seeded onto poly-L-lysine-coated 10.5×35×0.17 mm glass coverslips (Bellco) placed in the 60 mm culture dishes. Calcium phosphate-mediated transfections were performed in a 60 mm dish with 3 to 4 μg of receptor construct DNA, 1 μg of pCIS Gα 15 and Gα16 expression vector (Offermanns (1995) supra). 2 μg of pBluescript carrier DNA, and 0.3 μg of pRSV-T antigen expression vector (Gorman (1990) DNA and Protein Eng. Tech. 2:3–9). After 5 to 7 hr incubation, the cells were washed once with PBS containing 0.5 mM EDTA and 10% DMSO, then with PBS before continuing growth in regular media for 40–50 hr.
Efficient screening of expressed olfactory receptors with a large number of ligands by functional analysis requires a robust and sensitive assay system. Although the established role of cAMP in olfactory signaling offers a biochemical approach involving measurement of cAMP production in response to odorant stimulation, an alternative, rapid assay is to co-express the cloned olfactory receptors with G protein Gα15,16 subunits (see, e.g., Offermanns (1995) J. Biol. Chem. 270:15175–15180), which can promiscuously couple 7-transmembrane domain receptors that normally signal through other second messengers to the PIP2 pathway. In this reporter system, (olfactory) receptor activation leads to the generation of an IP3-mediated increase in intracellular Ca^2+, which can be measured at the single-cell level with high sensitivity and good temporal resolution using the dye FURA-2 and radiofluorometric imaging. These attributes were able to compensate for the low transfection efficiency in transient expression systems that would hinder more traditional biochemical assays.
These transfected cells were then tested for their ability to functionally respond to ligand-receptor binding. The ligand, the adrenergic agonist isoproterenol, was “bath” applied to the transfected cells and single cell Ca^2+-imaging was performed. Cells were pre-loaded with the Ca^2+-sensitive fluorescent dye FURA-2 AM (Molecular Probes) by bathing in serum-free DMEM containing 4 μM of the membrane permeant chemical for 1 hr at 37° C., then washed with a standard bath solution (130 mM NaCl, 2 mM CaCl2, 5 mM KCl, 10 mM glucose, 10 mM Na.HEPES/pH 7.4 at room temperature). For each experiment, a glass coverslip with FURA-2 loaded HEK 293 cells was introduced into an open-topped, longitudinal microperfusion chamber (300 μl bath volume mounted on a Zeiss Axiovert 135 microscope equipped with an F Fluar 40×/1.30 oil-immersion lens. The cells were superfused with test solutions typically for 30 to 40 seconds (5 ml/application) and washed out with 5 ml of bath solution at the end of each application. Each test solution was freshly diluted and manually applied with a micropipette into the chamber. Because of this manual procedure, there could be several seconds of delay in actual application from electronic tick marks used to define the beginning of application in each graph. At the same time, the solution flow might not be completely laminar. In most cases, the onset of Ca2+ rise in response to a specific solution occurred within 15 seconds of the beginning of solution application, though longer delays were sometimes observed. Acetylcholine was applied at the end of each experiment at 10 μM for 15–20 seconds. Ratiometric Ca^2+ measurements were performed as described by Grynkiewicz (1985) 260:3440–3450, with modifications using the Zeiss/Attofluor-Ratiovision imaging system. At 5-second intervals, the cells were sequentially illuminated for less than 100 ms, first at 340 nm and then at 380 nm. Fluorescence emission at 510 nm was monitored for each excitation wavelength via an intensified CCD camera. […]

[6] = target: T3, full-length mouse I7 receptor, residue 206 valine/isoleucine substitution (Mus musculus, UniProt Q9QWU6, I206V); test: Ca2+ imaging, full-length mouse I7 receptor with valine/isoleucine substitution at residue 206; format: cell-based; settings: heptanal vs octanal
T3 construct: expressed in transfected cells; not repeated
T3 sequence (Q9QWU6 1-327 I206V): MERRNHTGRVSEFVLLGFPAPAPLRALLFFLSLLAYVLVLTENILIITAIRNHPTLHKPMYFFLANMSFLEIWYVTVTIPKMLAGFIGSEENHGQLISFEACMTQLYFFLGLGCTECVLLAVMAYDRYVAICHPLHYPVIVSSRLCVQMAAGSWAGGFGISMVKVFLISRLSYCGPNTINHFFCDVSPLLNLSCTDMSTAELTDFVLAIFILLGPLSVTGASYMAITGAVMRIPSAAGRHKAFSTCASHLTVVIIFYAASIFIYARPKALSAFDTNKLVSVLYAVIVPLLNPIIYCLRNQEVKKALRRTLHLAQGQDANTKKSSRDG

## CCCCCCC=O [heptanal]
[1]
  ligand preference: preferentially recognize heptanal
[2]
  intracellular Ca2+ response (FURA-2 F340/F380): no effect
[3]
  intracellular Ca2+ response: responded only to heptanal
[4]; 30 μM
  intracellular Ca2+ response: small response
[5]; 10 μM
  intracellular Ca2+ response: not 10 μM
[5]; 30 μM
  intracellular Ca2+ response: responded to 30 μM
[5]
  relative Ca2+ response, octanal vs heptanal: responded better to octanal than to heptanal

## CCCCCCCC=O [octanal]
[2]
  intracellular Ca2+ response (FURA-2 F340/F380): no effect
[6]
  ligand preference: preferentially recognize octanal
[4]; 1 μM
  intracellular Ca2+ response: responded
[5]; 10 μM
  intracellular Ca2+ response: Ca^2+ transient was observed
[5]
  relative Ca2+ response, octanal vs heptanal: responded better to octanal than to heptanal
[5]; second application, even at 30 μM (desensitization)
  Ca2+ response to a second application: little or no effect
[5]; with vs without Gα15,16
  dependence of the Ca2+ response on Gα15,16: required the presence of Gα15,16
